Results on 30 compounds are retold here after ChEMBL document CHEMBL1143222, “Synthesis and in vitro activity of N'-cyano-4-(2-phenylacetyl)-N-o-tolylpiperazine-1-carboximidamide P2X7 antagonists” (Bioorg Med Chem Lett, 2008).

The source made the active and inactive calls. The calls are words filed in the database; no cut-off is given here.

The target in test [1] is T1, P2X purinoceptor 7 (Rattus norvegicus, UniProt Q64663).
T1 sequence (Q64663 whole entry): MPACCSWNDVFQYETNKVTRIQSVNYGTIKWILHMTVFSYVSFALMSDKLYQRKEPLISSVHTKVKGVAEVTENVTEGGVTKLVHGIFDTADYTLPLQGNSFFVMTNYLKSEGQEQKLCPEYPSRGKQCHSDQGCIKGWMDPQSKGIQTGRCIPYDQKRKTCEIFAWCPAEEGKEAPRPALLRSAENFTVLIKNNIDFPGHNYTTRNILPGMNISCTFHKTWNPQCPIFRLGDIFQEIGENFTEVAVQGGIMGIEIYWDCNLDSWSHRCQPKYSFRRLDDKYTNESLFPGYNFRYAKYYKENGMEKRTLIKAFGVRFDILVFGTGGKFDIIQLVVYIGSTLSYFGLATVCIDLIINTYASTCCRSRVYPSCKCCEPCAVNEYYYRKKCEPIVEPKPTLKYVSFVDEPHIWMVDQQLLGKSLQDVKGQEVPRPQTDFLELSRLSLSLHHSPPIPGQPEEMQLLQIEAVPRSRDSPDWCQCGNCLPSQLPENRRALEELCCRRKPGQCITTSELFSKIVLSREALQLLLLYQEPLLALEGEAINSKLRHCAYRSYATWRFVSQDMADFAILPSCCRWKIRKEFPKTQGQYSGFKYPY
The test can be described thus: Antagonist activity at rat recombinant P2X7 receptor assessed as inhibition of calcium flux by FLIPR assay. The class given is functional. On the technique in general: Calcium flux is commonly read through the fluorescence of an indicator in the cells.

Test [2] deals with T2, P2X purinoceptor 7 (Homo sapiens, UniProt Q99572).
T2 sequence (Q99572 whole entry): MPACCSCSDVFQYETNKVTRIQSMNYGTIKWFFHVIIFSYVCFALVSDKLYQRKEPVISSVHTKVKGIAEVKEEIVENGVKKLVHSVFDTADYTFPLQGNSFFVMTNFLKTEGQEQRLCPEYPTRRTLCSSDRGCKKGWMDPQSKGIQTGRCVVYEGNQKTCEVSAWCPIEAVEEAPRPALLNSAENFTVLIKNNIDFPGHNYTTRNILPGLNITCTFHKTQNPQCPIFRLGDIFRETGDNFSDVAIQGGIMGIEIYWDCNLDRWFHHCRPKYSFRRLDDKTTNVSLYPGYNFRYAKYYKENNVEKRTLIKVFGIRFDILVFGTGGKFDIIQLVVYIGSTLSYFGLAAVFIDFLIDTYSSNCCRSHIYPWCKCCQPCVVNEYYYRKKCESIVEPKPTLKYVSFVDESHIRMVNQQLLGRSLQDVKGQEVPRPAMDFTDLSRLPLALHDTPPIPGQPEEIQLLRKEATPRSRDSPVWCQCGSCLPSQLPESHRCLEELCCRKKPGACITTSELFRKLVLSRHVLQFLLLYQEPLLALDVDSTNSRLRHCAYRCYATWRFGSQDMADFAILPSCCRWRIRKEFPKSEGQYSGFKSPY
As to the kind of experiment: Antagonist activity at human recombinant P2X7 receptor assessed as inhibition of calcium flux by FLIPR assay. It counts as functional.

A short description of test [3]: Inhibition of P2X2/3 receptor at 10 uM.
The target in test [4] is T3, P2X purinoceptor 3 (Homo sapiens) (UniProt P56373).
T3 sequence (whole entry): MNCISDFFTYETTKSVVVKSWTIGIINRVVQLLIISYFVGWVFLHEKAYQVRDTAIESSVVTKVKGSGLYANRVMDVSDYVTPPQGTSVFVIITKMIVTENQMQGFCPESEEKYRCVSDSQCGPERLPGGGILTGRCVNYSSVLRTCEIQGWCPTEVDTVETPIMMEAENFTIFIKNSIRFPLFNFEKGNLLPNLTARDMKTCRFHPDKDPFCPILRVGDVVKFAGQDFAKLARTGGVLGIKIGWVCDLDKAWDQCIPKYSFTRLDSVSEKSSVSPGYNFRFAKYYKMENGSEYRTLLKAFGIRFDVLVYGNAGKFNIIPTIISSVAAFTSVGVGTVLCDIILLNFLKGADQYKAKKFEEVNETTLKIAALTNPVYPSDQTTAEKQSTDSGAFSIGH
As to the kind of experiment: Inhibition of P2X3 receptor at 10 uM.

The target of test [5] is T4, P2X purinoceptor 4 (Homo sapiens) (UniProt Q99571).
T4 sequence (whole entry): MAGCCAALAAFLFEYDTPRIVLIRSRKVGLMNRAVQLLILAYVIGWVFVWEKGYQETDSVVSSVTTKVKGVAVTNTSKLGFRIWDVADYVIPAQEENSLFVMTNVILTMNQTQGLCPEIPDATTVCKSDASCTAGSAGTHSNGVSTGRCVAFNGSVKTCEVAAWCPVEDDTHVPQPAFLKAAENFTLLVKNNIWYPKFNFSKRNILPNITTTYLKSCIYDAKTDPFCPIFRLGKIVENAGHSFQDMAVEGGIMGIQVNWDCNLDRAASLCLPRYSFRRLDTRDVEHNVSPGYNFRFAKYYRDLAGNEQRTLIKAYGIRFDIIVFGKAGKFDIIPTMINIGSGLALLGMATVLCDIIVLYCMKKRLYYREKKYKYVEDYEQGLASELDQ
As to the kind of experiment: Inhibition of P2X4 receptor at 10 uM.

For test [6], the target named is P2Y purinoceptor 2 (Homo sapiens) (UniProt P41231). As to the kind of experiment: Inhibition of P2Y2 receptor at 10 uM.
Sequence of P2Y purinoceptor 2 (Homo sapiens) (P41231 whole entry): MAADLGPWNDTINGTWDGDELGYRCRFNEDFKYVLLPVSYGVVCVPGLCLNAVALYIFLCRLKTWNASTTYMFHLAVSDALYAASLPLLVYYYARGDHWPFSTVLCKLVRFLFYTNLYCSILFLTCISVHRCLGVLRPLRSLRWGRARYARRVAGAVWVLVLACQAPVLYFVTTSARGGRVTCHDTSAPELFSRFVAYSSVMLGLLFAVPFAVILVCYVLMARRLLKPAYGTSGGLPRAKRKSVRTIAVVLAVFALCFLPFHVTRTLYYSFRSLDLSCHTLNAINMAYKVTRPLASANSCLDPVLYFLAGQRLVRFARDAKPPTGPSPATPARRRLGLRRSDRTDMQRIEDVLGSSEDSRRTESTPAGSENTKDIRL

In the case of `COc1ccc(CC(=O)N2CCN(C(=Nc3ccccc3C)NC#N)CC2c2ccccc2)cc1OC` (stereo in doubt; 7), the IC50 stood at 140 nM on P2X purinoceptor 7 [1] and 58 nM at P2X purinoceptor 7 [2].
Consider `COc1ccc(CC(=O)N2CCN(C(=Nc3ccccc3C)NC#N)C(c3ccccc3)C2)cc1OC` (stereo unspecified), for which the concentration for half-maximal inhibition (IC50) was 220 nM on P2X purinoceptor 7 [1] and 51 nM at P2X purinoceptor 7 [2].
Turning to `Cc1ccccc1N=C(NC#N)N1CCN(C(=O)Cc2ccco2)C(c2ccccc2)C1` (stereo unspecified), the IC50 amounted to 520 nM at P2X purinoceptor 7 [1] and 110 nM on P2X purinoceptor 7 [2].
For `COc1ccc(CC(=O)N2CCN(/C(=N/C#N)Nc3ccccc3C)CC2C(C)(C)C)cc1OC` (stereo unspecified) the same measures were 420 nM and 190 nM.
As to `Cc1ccccc1N/C(=N\C#N)N1CCN(C(=O)Cc2ccc3ccccc3c2)C(c2ccccc2)C1` (stereo unspecified), the values for the IC50 on P2X purinoceptor 7 [1] and at P2X purinoceptor 7 [2] were 140 nM and 310 nM, respectively.
Turning to `Cc1ccccc1N=C(NC#N)N1CCN(C(=O)Cc2ccc(Cl)cc2)C(c2ccccc2)C1` (stereo unspecified), the figures for the IC50 at P2X purinoceptor 7 [1] and on P2X purinoceptor 7 [2] were 110 nM and 140 nM, respectively.
On to `COc1ccc(CC(=O)N2CCN(C(=Nc3ccccc3C)NC#N)[C@H](C(C)C)C2)cc1OC`, for which the IC50 turned out to be 16000 nM at P2X purinoceptor 7 [1] and 1300 nM at P2X purinoceptor 7 [2].
For `COc1ccc(CC(=O)N2C(C)CN(C(=Nc3ccccc3C)NC#N)CC2C)cc1OC` (cis isomer) the same measures were 19000 nM and 460 nM.
On to `COc1ccc(CC(=O)NC(NC(=NC#N)Nc2ccccc2C)C(C)(C)C)cc1OC` (stereo unspecified), for which the IC50 is 14 nM at P2X purinoceptor 7 [1] and 120 nM on P2X purinoceptor 7 [2].
Consider `Cc1ccccc1N/C(=N\C#N)N1CCN(C(=O)Cc2c[nH]c3ccccc23)C(c2ccccc2)C1` (stereo unspecified), for which the IC50 came to 210 nM at P2X purinoceptor 7 [1] and 100 nM on P2X purinoceptor 7 [2].
As for `COc1ccc(C(=O)N2CCN(C(=Nc3cccc4ncccc34)NC#N)CC2c2ccccc2)cc1OC` (stereo unspecified), the IC50 at P2X purinoceptor 7 [1] stood at 30 nM; at P2X purinoceptor 7 [2], 59 nM.
Consider `Cc1cc(CC(=O)N2CCN(/C(=N/C#N)Nc3ccccc3C)CC2c2ccccc2)no1` (stereo unspecified), for which the IC50 at P2X purinoceptor 7 [1] came out at 610 nM; at P2X purinoceptor 7 [2], 410 nM.
On the same counts, the results for `Cc1ccccc1N/C(=N\C#N)N1CCN(C(=O)Cc2c[nH]cn2)C(c2ccccc2)C1` (stereo unspecified) are 14000 nM and 1000 nM.
`Cc1ccn(CC(=O)N2CCN(/C(=N/C#N)Nc3ccccc3C)CC2c2ccccc2)n1` (stereo unspecified): the figures for the IC50 on P2X purinoceptor 7 [1] and on P2X purinoceptor 7 [2] were 320 nM and 40 nM, respectively.
In the case of `COc1ccc(CC(=O)N2CCN(C(=Nc3ccccc3C)NC#N)CC2c2ccccc2)cc1OC` (stereo in doubt; 26), the IC50 worked out at 140 nM at P2X purinoceptor 7 [1] and 58 nM at P2X purinoceptor 7 [2].
In the case of `COc1ccc(C(=O)N2CCN(/C(=N/C#N)Nc3cccc4ncccc34)CC2c2ccccc2)cc1OC` (stereo unspecified), the result in test [3], in test [4], in test [5] and in test [6] was inactive.
On to `Cc1ccccc1N/C(=N\C#N)N1CCN(C(=O)Cn2nccc2C)C(c2ccccc2)C1` (stereo unspecified), for which the IC50 came to 560 nM at P2X purinoceptor 7 [1] and 60 nM at P2X purinoceptor 7 [2].
`Cc1cc(CC(=O)N2CCN(C(=Nc3ccccc3C)NC#N)CC2c2ccccc2)on1` (stereo unspecified): the values for the IC50 at P2X purinoceptor 7 [1] and on P2X purinoceptor 7 [2] were 170 nM and 46 nM, respectively.
Consider `Cc1ccccc1N/C(=N\C#N)N1CCN(C(=O)Cc2ccoc2)C(c2ccccc2)C1` (stereo unspecified), for which the IC50 was 250 nM on P2X purinoceptor 7 [1] and 220 nM at P2X purinoceptor 7 [2].
Consider `COc1ccc(C(=O)N2CCN(C(=Nc3ccccc3C)NC#N)CC2c2ccccc2)cc1OC` (stereo unspecified), for which the IC50 on P2X purinoceptor 7 [1] came to 290 nM; at P2X purinoceptor 7 [2] it was 94 nM.
As to `COc1ccc(CCCC(=O)N2CCN(/C(=N/C#N)Nc3ccccc3C)CC2c2ccccc2)cc1OC` (stereo unspecified), the IC50 at P2X purinoceptor 7 [1] came to 95 nM; on P2X purinoceptor 7 [2], 70 nM.
For the compound `Cc1ccccc1N=C(NC#N)N1CCN(C(=O)Cc2ccncc2)C(c2ccccc2)C1` (stereo unspecified), the figures for the IC50 at P2X purinoceptor 7 [1] and at P2X purinoceptor 7 [2] were 150 nM and 36 nM, respectively.
For `COc1ccc(CC(=O)N2CCN(C(=Nc3ccccc3C)NC#N)[C@H](CC(C)C)C2)cc1OC` the same measures were 4500 nM and 430 nM.
As for `COc1ccc(CC(=O)NC(N/C(=N/C#N)Nc2cccc3ncccc23)C(C)(C)C)cc1OC` (stereo unspecified), the IC50 at P2X purinoceptor 7 [2] was 44 nM.
Consider `Cc1ccccc1N/C(=N\C#N)N1CCN(C(=O)CC23CC4CC(CC(C4)C2)C3)C(c2ccccc2)C1` (stereo unspecified), for which the values for the IC50 at P2X purinoceptor 7 [1] and on P2X purinoceptor 7 [2] were 630 nM and 1500 nM, respectively.
With `Cc1ccccc1N/C(=N\C#N)N1CCN(C(=O)Cc2ccsc2)C(c2ccccc2)C1` (stereo unspecified), the IC50 on P2X purinoceptor 7 [1] came to 270 nM; on P2X purinoceptor 7 [2], 71 nM.
Turning to `COc1ccc(CCC(=O)N2CCN(/C(=N/C#N)Nc3ccccc3C)CC2c2ccccc2)cc1OC` (stereo unspecified), the IC50 on P2X purinoceptor 7 [1] turned out to be 76 nM; on P2X purinoceptor 7 [2], 57 nM.
On the same counts, the results for `Cc1ccccc1N=C(NC#N)N1CCN(C(=O)Cc2ccccc2)C(c2ccccc2)C1` (stereo unspecified) are 380 nM and 88 nM.
For `Cc1ccccc1N/C(=N\C#N)N1CCN(C(=O)Cc2cccs2)C(c2ccccc2)C1` (stereo unspecified) the same measures were 150 nM and 46 nM.
As to `Cc1ccccc1N/C(=N\C#N)N1CCN(C(=O)Cc2cccnc2)C(c2ccccc2)C1` (stereo unspecified), the IC50 on P2X purinoceptor 7 [1] stood at 390 nM; on P2X purinoceptor 7 [2] it was 40 nM.

For orientation: IC50 means the midpoint of a concentration-inhibition curve.
